Legend:
[1] = test system: Hexb−/− mouse (Sandhoff disease model); assay: Step cycle, Sandhoff mouse; assay type: in vivo; conditions: Sandhoff mice, 0.1 g/kg from 3 weeks of age, 12 weeks of age
Experimental: Step cycle is the length of time taken during locomotion by a limb from the time it leaves the ground until it leaves the ground on the next occasion. Step cycle time was assessed at 12 weeks of age in untreated and acetyl-leucine treated Sandhoff model mice. Acetyl-leucine treatment constituted 0.1 g/kg body weight acetyl-leucine from 3 weeks of age.

[2] = test system: NPC Chinese Hamster Ovary (CHO) cells; assay: Relative lysosomal volume via LysoTracker, NPC CHO cells; assay type: cell-based; conditions: 1 mM, 72 hours, p<0.01 versus untreated NPC1-null
Excerpt: Relative lysosomal volume was quantified via LysoTracker.

[3] = test system: Lewy Body dementia patient; assay: Case study, Lewy Body dementia; assay type: in vivo, human
Experimental: The patient started taking acetyl-leucine (3 g/day for one week; 5 g/day thereafter) and was evaluated after four weeks. […] Medication was reduced to 3 g/day, and the patient was instructed to stop medication about two weeks later.

[4] = test system: Aspartylglucosaminuria patient fibroblasts; assay: Lysosomal volume via LysoTracker, Aspartylglucosaminuria fibroblasts; assay type: cell-based, human; conditions: 1 mM, 6 days
[5] = test system: Tay-Sachs disease patient fibroblasts; assay: Glycosphingolipid (GSL) levels by HPLC, Tay-Sachs fibroblasts; assay type: cell-based, human; conditions: 1 mM for 6 days, p<0.05
vertigo patients = conditions: used in France to treat acute vertigo since 1957; cited from earlier work
[6] = test system: ataxia with oculomotor apraxia type 4 patients; assay: Case study, ataxia with oculomotor apraxia type 4; assay type: in vivo, human; conditions: AOA4 youngest sibling; on treatment
Excerpt: In this case study, four patients (male siblings) suffered from, and were later diagnosed with, ataxia with oculomotor apraxia type 4. The older three siblings […], at the time of disease onset. […] The older siblings began treatment with acetyl-leucine […], respectively, and have been on the treatment for approximately four years. No long-term clinical data is available for these three patients.
The youngest sibling was […] at the time of onset. […] No long-term clinical data is available for the youngest sibling.

[7] = test system: Mucopolysaccharidosis Type VII (MPS VII) patient fibroblasts; assay: Lysosomal volume via LysoTracker, MPS VII fibroblasts; assay type: cell-based, human; conditions: 1 mM, 6 days
MSA-P patients = assay: Case studies, multiple system atrophy Parkinson type (MSA-P) patients; assay type: in vivo, human
Excerpt: Medication was stopped. […] The patient evaluated after one month on acetyl-DL-leucine. […] Episodes of mental confusion completely disappeared. The patient's cognitive structure seemed much clearer and straighter. […] The patient's spouse supported continuing the medication.

ALS patients = assay: Case studies, amyotrophic lateral sclerosis (ALS) patients; assay type: in vivo, human
Excerpt: The results were documented by video.

[8] = test system: downbeat nystagmus patients; assay: Case studies, downbeat nystagmus patients; assay type: in vivo, human
Excerpt: The patient was diagnosed with downbeat nystagmus: the patient was severely impaired by blurred vision (oscillopsia) due to the nystagmus, and experienced difficulties while reading and writing. The patient's visual acuity was: right 0.75, left 0.67, binocular 0.83, and the downbeat nystagmus was documented by video-oculography. […] The patient could partially suppress the nystagmus by visual fixation, as evaluated using a target center (dot presented in the center of a display for 30 seconds, FIG. 13A) and in complete darkness using goggles covered with special glasses for 45 seconds (FIG. 13B). The results (median of slow phase velocity, SPV) were as follows: Target Center-horizontal: −0.02°/s, vertical: 2.41°/s; Complete Darkness-horizontal: 0.05°/s, vertical: 3.27°/s (FIG. 13C).

[9] = after 1 week on acetyl-DL-leucine
[10] = after 4 weeks on acetyl-DL-leucine
[11] = MSA-P Patient 2, after 1 month of treatment
[12] = MSA-P Patient 2, after 1 month without treatment
[13] = MSA-P Patient 2, after 2 months without treatment
[14] = ALS Patient 1, after a further 20 days
[15] = downbeat nystagmus Patient 1, approximately 14 weeks after starting
[16] = downbeat nystagmus Patient 2, on treatment, Complete Darkness
[17] = downbeat nystagmus Patient 2, on treatment, Target Center

CC(=O)NC(CC(C)C)C(=O)O (racemic) [acetyl-DL-leucine]
Average step cycle time ([1]; p<0.001 vs untreated): significantly faster average step cycle times | Hind step cycle time ([1]; p<0.01 vs untreated): significantly faster hind step cycle times | Front step cycle time ([1]; p<0.05 vs untreated): significantly faster front step cycle times | Lysosomal volume (LysoTracker) [2]: significantly reduced lysosomal volume | Patient report ([3]; 5 g/day, after four weeks): increased fatigue and a deterioration of balance and speech | Coefficient of variation (temporal) [3, 9]: 9.1 | Double stance [3, 9]: 36.1% | Max. speed [3, 9]: 92 cm/s | Step cycle length [3, 9]: 81 cm | Track width [3, 9]: 4.6 cm | cadence [3, 9]: 81 steps/minute | speed [3, 9]: 55 cm/s | Coefficient of variation (temporal) [3, 10]: 8.8 | Double stance [3, 10]: 38.7% | Functional Gait Assessment [3, 10]: 11/30 | Max. speed [3, 10]: 74 cm/s | Step cycle length [3, 10]: 79 cm | Track width [3, 10]: 6.7 cm | cadence [3, 10]: 85 steps/minute | speed [3, 10]: 56 cm/s | Patient report ([3]; decreased dose 3 g/day, re-evaluated about one month after ceasing): did not report improvement of symptomatology | LysoTracker fluorescence relative to untreated disease fibroblasts [4]: trend in reducing LysoTracker fluorescence | GSL storage (decrease) [5]: statistically significant | Safety profile (vertigo patients): excellent safety profile | Mother's report compared to older siblings at each age [6]: improved fine motor skills and improved speech | LysoTracker fluorescence relative to untreated disease fibroblasts [7]: trend in reducing LysoTracker fluorescence | Clinical observation (MSA-P patients; MSA-P Patient 1, 5 g/day, after 3 weeks): no significant improvement of gait, reduction of falls or improved hypokinetic rigid-syndrome | Clinical observation (MSA-P patients; MSA-P Patient 2, 5 g per day, after one month of treatment): subjective improvement of dizziness | Coefficient of variation (temporal) (MSA-P patients; [11]): 2.7 | Double stance (MSA-P patients; [11]): 25.6% | Functional Gait Assessment (MSA-P patients; [11]): 24/30 | Max. speed (MSA-P patients; [11]): 214 cm/s | Step cycle length (MSA-P patients; [11]): 120 cm | Track width (MSA-P patients; [11]): 3.8 cm | cadence (MSA-P patients; [11]): 109 steps/minute | speed (MSA-P patients; [11]): 109 cm/s | Coefficient of variation (temporal) (MSA-P patients; [12]): 1.7 | Double stance (MSA-P patients; [12]): 22.5% | Functional Gait Assessment (MSA-P patients; [12]): 25/30 | Max. speed (MSA-P patients; [12]): 196 cm/s | Step cycle length (MSA-P patients; [12]): 126 cm | Track width (MSA-P patients; [12]): 2.3 cm | cadence (MSA-P patients; [12]): 109 steps/minute | speed (MSA-P patients; [12]): 114 cm/s | Coefficient of variation (temporal) (MSA-P patients; [13]): 2.1 | Double stance (MSA-P patients; [13]): 26.7% | Functional Gait Assessment (MSA-P patients; [13]): 22/30 | Max. speed (MSA-P patients; [13]): 177 cm/s | Step cycle length (MSA-P patients; [13]): 107 cm | Track width (MSA-P patients; [13]): 3.4 cm | cadence (MSA-P patients; [13]): 106 steps/minute | speed (MSA-P patients; [13]): 94 cm/s | Symptoms without medication (MSA-P patients; MSA-P Patient 2, after two months without medication): worsening of general symptomatology | Cognitive function (wife's report) (MSA-P patients; MSA-P Patient 3, 5 g per day, after one month): significant improvement of cognitive function | Gait function (MSA-P patients; MSA-P Patient 3, after one month): no improvement of gait function | Overall symptoms (ALS patients; ALS Patient 1): improvement in symptoms | Speech (patient report) (ALS patients; ALS Patient 1, 5 gram per day, after 15 days of treatment): significant improvement of speech | Speech after stopping treatment (ALS patients; ALS Patient 1, about 7 days plus 1-2 additional weeks off treatment): deterioration of speech | Paresis of the right foot-dorsiflexors and foot drop (ALS patients; [14]): improved dramatically and were clinically hardly detectable | Sleep (patient report) (ALS patients; [14]): improvement in sleep | Speech (patient report) (ALS patients; [14]): further improvement of speech | Symptomatology after resuming treatment (ALS patients; ALS Patient 1, second resumption): improved symptomatology, in particular speech | Clinical observation (ALS patients; ALS Patient 2, 5 g per day, after approximately 2 months): progredient deterioration of the motor function of the left hand, but a discrete improvement of walking | Swallowing functions (ALS patients; ALS Patient 2, after approximately 2 months): remained stable | Symptomatology (ALS patients; ALS Patient 3, 5 g per day, after one month): did not report improvement of symptomatology | Clinical observation (ALS patients; ALS Patient 4, 5 g per day, after about one month): subjective improvement of dysphagia and less hypersalivation | Symptomatology after suspension (ALS patients; ALS Patient 4, 10 days after therapy was suspended): worsening of symptomatology | ALS-FRS score (ALS patients; ALS Patient 4, about 8 weeks after resuming continuous treatment, before treatment 44/48): 43/48 | Effect of temporary suspension of the medication ([8]; downbeat nystagmus Patient 1): considerable deterioration | Patient-reported benefit ([8]; downbeat nystagmus Patient 1, 5 gram per day, after 10 days): significant benefit | Nystagmus (clinical examination) [8, 15]: reduction of the nystagmus | Posturography [8, 15]: reduction of postural sway | Visual acuity, left ([8]; downbeat nystagmus Patient 1, approximately 14 weeks after starting, before 0.67): 1.0 | Visual acuity, right ([8]; downbeat nystagmus Patient 1, approximately 14 weeks after starting, before 0.75): 0.83 | Visual acuity, binocular ([8]; downbeat nystagmus Patient 1, approximately 14 weeks after starting, before 0.83): 1 | Side-effects ([8]; downbeat nystagmus Patient 1, continued treatment at 5 gram per day): no side-effects | Clinical observation ([8]; downbeat nystagmus Patient 2, 5 g/day): improvement of gait | Median of slow phase velocity (SPV), horizontal [8, 16]: 0.05 °/s | Median of slow phase velocity (SPV), vertical [8, 16]: 3.27 °/s | Median of slow phase velocity (SPV), horizontal [8, 17]: −0.02 °/s | Median of slow phase velocity (SPV), vertical [8, 17]: 2.41 °/s | Maximal gait velocity ([8]; downbeat nystagmus Patient 2, on treatment, increase from 122): 155 cm/s

Reference: patent publication US11793782B2, “Therapeutic agents for neurodegenerative diseases” (priority 2017, dated 2023)
